Source: patent US20260184712A1, “Heterocyclic Compounds as ENT Inhibitors and Compounds for Use in the Treatment of Cancers” (iTeos Belgium SA, priority 2022, published 2026)

Molecular target: T1, human ENT1 (Homo sapiens, UniProt Q99808)
T1 construct: JAR cells expressing ENT1 were purchased from ATCC; host or cells: JAR cells
T1 sequence (Q99808 1-456): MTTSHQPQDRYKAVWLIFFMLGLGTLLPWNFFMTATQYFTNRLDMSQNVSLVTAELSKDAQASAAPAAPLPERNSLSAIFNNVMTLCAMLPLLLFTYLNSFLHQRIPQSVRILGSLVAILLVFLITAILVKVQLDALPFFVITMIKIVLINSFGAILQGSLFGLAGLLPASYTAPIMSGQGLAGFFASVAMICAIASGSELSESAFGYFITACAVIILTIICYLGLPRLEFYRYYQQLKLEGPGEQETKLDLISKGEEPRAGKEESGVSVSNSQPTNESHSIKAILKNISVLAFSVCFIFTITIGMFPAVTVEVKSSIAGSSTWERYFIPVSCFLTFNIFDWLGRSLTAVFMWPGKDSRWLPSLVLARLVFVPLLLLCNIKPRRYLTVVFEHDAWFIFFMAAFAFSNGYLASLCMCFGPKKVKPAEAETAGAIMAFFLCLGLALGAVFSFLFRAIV
Experiment: ENT1 binding assay (competition with Sahenta-DY647 on JAR cells)
Conditions: competition with SAHENTA-DY647 binding; IC50 categorized; read-out: Binding Assay IC50
In short: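 Whole-cell competition on JAR cells (native ENT1): 50,000 cells pre-incubated 30 min at 4 °C with compound in HBSS/10 mM Hepes/0.1% BSA, then 100 nM Sahenta-DY647 added for 30 min at 4 °C. After washing, fluorescence (Ex 630/Em 670 nm) read; IC50 from sigmoidal fit, averaged as pIC50.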

Question: C[C@H]1O[C@@H](n2cnc3c(OCc4ccc(C(F)(F)F)cc4)ncnc32)[C@H](O)[C@@H]1O [Compound 204] was tested. Which IC50 did it give?
Answer: Its IC50 is 20 to 500 nM.

Question: How did the IC50 turn out when CNS(=O)(=O)c1ccc(CSc2ncnc3c2ncn3[C@@H]2O[C@H](C)[C@@H](O)[C@H]2O)cc1 [Compound 297] was run?
Answer: The IC50 was over 500 nM.

Question: Which IC50 does the source give for C[C@H]1O[C@@H](n2cnc3c(OCc4ccc([N+](=O)[O-])cc4)nccc32)[C@H](O)[C@@H]1O [Compound 411] here?
Answer: Its IC50 is over 500 nM.

Question: For C[C@H]1O[C@@H](n2ccc3c(SCc4ccc([N+](=O)[O-])cc4)ncnc32)[C@H](O)[C@@H]1O [Compound 197], which IC50 is on record?
Answer: Its IC50 is 20 to 500 nM.

Question: For CC1OC(n2c(NC3CCC(C)(O)CC3)nc3c(OCc4ccc([N+](=O)[O-])cc4)ncnc32)C(O)C1O (single isomer, unassigned) [Compound 117], which IC50 is on record?
Answer: Its IC50 is 1 to 20 nM.

Question: With Cc1nc(=O)c2cc(COc3ncnc4c3ncn4[C@@H]3O[C@H](C)[C@@H](O)[C@H]3O)ccc2[nH]1 [Compound 367] as the molecule, how does the IC50 read?
Answer: The IC50 was over 500 nM.

Question: C[C@H]1O[C@@H](n2cnc3c(OCc4ccc(C5CC5)cc4)ncnc32)[C@H](O)[C@@H]1O [Compound 206] was tested. Which IC50 did it give?
Answer: Its IC50 is 20 to 500 nM.

Question: How did the IC50 turn out when CC1OC(n2c(NC3CC(C)(O)C3)nc3c(N4CCc5ccc([N+](=O)[O-])cc5C4)ncnc32)C(O)C1O (single isomer, unassigned) [Compound 141] was run?
Answer: Its IC50 is under 1 nM.

Question: Which IC50 does the source give for C[C@H]1O[C@@H](n2cnc3c(OCc4ccc([N+](=O)[O-])cc4)nc(F)nc32)[C@H](O)[C@@H]1O [Compound 225] here?
Answer: The IC50 was over 500 nM.

Question: For C[C@H]1O[C@@H](n2c(NC3CCOCC3)nc3c(N4CCc5ccccc5C4)ncnc32)[C@H](O)[C@@H]1O [Compound 170], which IC50 is on record?
Answer: Its IC50 is 20 to 500 nM.

Question: For C[C@H]1O[C@@H](n2c(N)nc3c(OCc4ccc([N+](=O)[O-])cc4)ncnc32)[C@H](O)[C@@H]1O [Compound 4], which IC50 is on record?
Answer: Its IC50 is 20 to 500 nM.

Question: With CC1OC(n2c(NC3CC(C)(O)C3)nc3c(N4CCc5ccc([N+](=O)[O-])cc5C4)ncnc32)C(O)C1O (single isomer, unassigned) [Compound 137] as the molecule, how does the IC50 read?
Answer: Its IC50 is under 1 nM.

Question: Which IC50 does the source give for C[C@H]1O[C@@H](n2cnc3c(OCc4ccccc4-n4cccn4)ncnc32)[C@H](O)[C@@H]1O [Compound 358] here?
Answer: The IC50 was over 500 nM.

Question: For C[C@H]1O[C@@H](n2cnc3c(NCc4cc(C(F)(F)F)ccc4F)ncnc32)[C@H](O)[C@@H]1O [Compound 378], which IC50 is on record?
Answer: The IC50 was over 500 nM.

Question: For C[C@H]1O[C@@H](n2cnc3c(OCc4ccc(Cl)c(Cl)c4)ncnc32)[C@H](O)[C@@H]1O [Compound 226], which IC50 is on record?
Answer: The IC50 was over 500 nM.

Question: Which IC50 does the source give for C[C@H]1O[C@@H](n2cnc3c(-c4noc(-c5ccc([N+](=O)[O-])cc5)n4)ncnc32)[C@H](O)[C@@H]1O [Compound 421] here?
Answer: Its IC50 is over 500 nM.

Question: For COc1cc(COc2ncnc3c2ncn3[C@@H]2O[C@H](C)[C@@H](O)[C@H]2O)cc(OC)c1OC [Compound 382], which IC50 is on record?
Answer: The IC50 was over 500 nM.

Question: C[C@H]1O[C@@H](n2cnc3c(SCc4ccc(C(=N)N)cc4)ncnc32)[C@H](O)[C@@H]1O [Compound 410] was tested. Which IC50 did it give?
Answer: Its IC50 is over 500 nM.

Question: For Cc1cc(Cl)ccc1COc1ncnc2c1ncn2[C@@H]1O[C@H](C)[C@@H](O)[C@H]1O [Compound 235], which IC50 is on record?
Answer: Its IC50 is over 500 nM.

Question: COc1ccc(COc2ncnc3c2ncn3[C@@H]2O[C@H](C)[C@@H](O)[C@H]2O)cc1 [Compound 231] was tested. Which IC50 did it give?
Answer: Its IC50 is over 500 nM.

Question: Which IC50 does the source give for CC(C)Nc1nc2c(N3CCc4ccccc4C3)ncnc2n1[C@@H]1O[C@H](C)[C@@H](O)[C@H]1O [Compound 212] here?
Answer: The IC50 was 20 to 500 nM.

Question: C[C@H]1O[C@@H](n2c(C(=O)NC3CCCC3)nc3c(OCc4ccc([N+](=O)[O-])cc4)ncnc32)[C@H](O)[C@@H]1O [Compound 3] was tested. Which IC50 did it give?
Answer: The IC50 was 20 to 500 nM.

Question: With COCCCNc1nc2c(OCc3ccc(C#N)cc3)ncnc2n1[C@@H]1O[C@H](C)[C@@H](O)[C@H]1O [Compound 45] as the molecule, how does the IC50 read?
Answer: Its IC50 is 1 to 20 nM.

Question: How did the IC50 turn out when C[C@H]1O[C@@H](n2cnc3c(C(=O)NCc4ccccc4)ncnc32)[C@H](O)[C@@H]1O [Compound 417] was run?
Answer: The IC50 was over 500 nM.

Question: With C[C@H]1O[C@@H](n2cnc3c(SCc4ccc(OCC(F)(F)F)cc4)ncnc32)[C@H](O)[C@@H]1O [Compound 207] as the molecule, how does the IC50 read?
Answer: The IC50 was 20 to 500 nM.

Question: For C[C@H]1O[C@@H](n2c(NCCCS(C)(=O)=O)nc3c(OCc4ccc(C#N)cc4)ncnc32)[C@H](O)[C@@H]1O [Compound 61], which IC50 is on record?
Answer: The IC50 was 20 to 500 nM.
